# Laboratory results published in patent US5190741A, “Agents for diagnosing and treating melanomas, aromatic halogenated derivatives usable as such agents and their preparation” (Institut National de la Sante et de la Recherche Medicale …, priority 1989, dated 1993).
# Read-outs that look alike come from different tables or passages of the source.
# Experiments:
# [1] = LD50 determination, i.v. (Karber and Behrens); details: mouse, in vivo, iv
# Excerpt: (§1) The determination of the LD50 is made in the mouse after i.v. injection of the molecules according to the methodology described by Karber and Behrens.
# (§2) 6 weeks old OF 1 male mice
# [2] = system: 6 weeks old OF 1 male mice; test: LD50 determination, i.v. (Karber and Behrens); details: mouse, in vivo, iv
# Excerpt: as §1, §2
# [3] = system: B16 murine melanoma; test: Autoradiograms, C57 BL6 mice bearing B16; format: in vivo, mouse
# Experimental: The autoradiograms are carried out in mice bearing grafted melanomas:
# a. C57 BL6 bearing the B16 murine melanoma.
# The animals bearing grafted tumors receive the labelled compounds in the form of the hydrochloride in saline solution (3.7 to 5×10^5 Bq/animal) in a caudal vein. At different time intervals after the administration of the compounds (from 15 minutes to 24 hours) the mice are anesthetized with ether and plunged into liquid nitrogen.
# 30 μm sections, parallel to a sagittal plane, are prepared in a freezing microtome (TS 260, SLEE) according to the protocol described by Ullberg.
# [4] = system: B16 melanoma; test: Scintillation imaging, C57 BL6 mice bearing B16; format: in vivo, mouse; details: 3 to 17 h after injection
# Excerpt: (§3) The mice bearing grafted tumors are anesthetized by the i.p. injection of sodium pentobarbital 1/5 and immobilized under a scintillation camera (Gammatome II, CGR) equipped with a pinhole 3-360 collimator, sensitivity 3.2 10^-4.
# C57 BL6 bearing B16 melanomas at different stages of development.
# (§4) The scanning observations have also been carried out after the injection of B into the following mice:
# C57 BL6 bearing the B16 melanoma
# [5] = Tissue distribution in Swiss nu/nu SSCUP mice bearing Dau; format: in vivo, human; details: mouse, iv, 3 umol/animal
# Experimental: The study of the tissue distribution of the ^125 I labelled compounds was performed in mice bearing grafted melanomas (cf. autoradiograms above). […] The animals are sacrificed at different time intervals of 1 to 24 hours after the injection. The blood is collected and the principal organs are excised. Aliquots are weighed and the radioactivity of the samples is measured in a […] 1191 counter (analytic tracer). The counting yield for iodine 125 is 60%. The results are expressed: as a percentage of the injected dose bound per g of tissue (% ID/g); in the form of the ratios [formula] This ratio reflects more precisely the selectivity of a molecule for an organ (tables 2, 4, 6, 8, 10 and 12).
# [6] = system: Beu melanic human melanoma; test: Scintillation imaging, nu/nu SSCUP nude mice bearing Beu; format: in vivo; details: 3 to 17 h after injection
# Excerpt: as §3
# nu/nu SSCUP nudes bearing human melanomas Beu and Dau.
# as §4
# nu/nu SSCUP nudes bearing the Beu heterotransplant.
# [7] = intestine, read-out: intestine % ID/g
# [8] = kidney, read-out: kidney % ID/g
# [9] = muscle, read-out: muscle % ID/g
# [10] = pancreas, read-out: pancreas % ID/g
# [11] = plasma, read-out: plasma % ID/g
# [12] = spleen, read-out: spleen % ID/g
# [13] = stomach, read-out: stomach % ID/g
# [14] = submaxillary glands, read-out: submaxillary glands % ID/g
structure (smiles),measurement,setting,value
"CCNCCNC(=O)c1ccc(I)cc1 [Derivative B, N-(2-ethylaminoethyl) 4-iodo benzamide]",LD50,[1],175 mg/kg
same,LD 0,[2],150 mg/kg
same,LD 100,[2],200 mg/kg
same,darkening of the film at the tumor,[3]; 1 h after injection,qualitatively as great as after the injection of A
same,tumoral radioactive concentration (autoradiogram),"[3]; 4 h and particularly 6 h, compared with A",more intense tumoral radioactive concentration
same,tumor visibility on autoradiogram,[3]; 24 h after i.v.,still visible
same,radioactivity remaining in the organism,[3]; 24 h after injection,no radioactivity remains in the organism
same,tumoral definition,[4],very good tumoral definition
same,tissue uptake at 1 h,"[5]; blood, read-out: blood % ID/g",0.89 %ID/g
same,tissue uptake at 2 h,"[5]; blood, read-out: blood % ID/g",0.93 %ID/g
same,tissue uptake at 4 h,"[5]; blood, read-out: blood % ID/g",0.3 %ID/g
same,tissue uptake at 6 h,"[5]; blood, read-out: blood % ID/g",0.53 %ID/g
same,tissue uptake at 24 h,"[5]; blood, read-out: blood % ID/g",0.009 %ID/g
same,tissue uptake at 8 h,"[5]; blood, read-out: blood % ID/g",0.11 %ID/g
same,tissue uptake at 12 h,"[5]; blood, read-out: blood % ID/g",0.015 %ID/g
same,tissue uptake at 1 h,"[5]; brain, read-out: brain % ID/g",1.28 %ID/g
same,tissue uptake at 2 h,"[5]; brain, read-out: brain % ID/g",1.25 %ID/g
same,tissue uptake at 4 h,"[5]; brain, read-out: brain % ID/g",0.63 %ID/g
same,tissue uptake at 6 h,"[5]; brain, read-out: brain % ID/g",0.22 %ID/g
same,tissue uptake at 24 h,"[5]; brain, read-out: brain % ID/g",0.002 %ID/g
same,tissue uptake at 8 h,"[5]; brain, read-out: brain % ID/g",0.14 %ID/g
same,tissue uptake at 12 h,"[5]; brain, read-out: brain % ID/g",0.01 %ID/g
same,tissue uptake at 1 h,"[5]; eye, read-out: eye % ID/g",0.51 %ID/g
same,tissue uptake at 2 h,"[5]; eye, read-out: eye % ID/g",0.5 %ID/g
same,tissue uptake at 4 h,"[5]; eye, read-out: eye % ID/g",0.21 %ID/g
same,tissue uptake at 6 h,"[5]; eye, read-out: eye % ID/g",0.19 %ID/g
same,tissue uptake at 24 h,"[5]; eye, read-out: eye % ID/g",0.008 %ID/g
same,tissue uptake at 8 h,"[5]; eye, read-out: eye % ID/g",0.06 %ID/g
same,tissue uptake at 12 h,"[5]; eye, read-out: eye % ID/g",0.01 %ID/g
same,tissue uptake at 1 h,[5]; [7],3.1 %ID/g
same,tissue uptake at 2 h,[5]; [7],2.57 %ID/g
same,tissue uptake at 4 h,[5]; [7],1.19 %ID/g
same,tissue uptake at 6 h,[5]; [7],1.05 %ID/g
same,tissue uptake at 8 h,[5]; [7],0.36 %ID/g
same,tissue uptake at 12 h,[5]; [7],0.05 %ID/g
same,tissue uptake at 24 h,[5]; [7],0.01 %ID/g
same,tissue uptake at 1 h,[5]; [8],8.15 %ID/g
same,tissue uptake at 2 h,[5]; [8],6.17 %ID/g
same,tissue uptake at 4 h,[5]; [8],2.51 %ID/g
same,tissue uptake at 6 h,[5]; [8],1.07 %ID/g
same,tissue uptake at 24 h,[5]; [8],0.04 %ID/g
same,tissue uptake at 8 h,[5]; [8],0.42 %ID/g
same,tissue uptake at 12 h,[5]; [8],0.08 %ID/g
same,tissue uptake at 1 h,"[5]; liver, read-out: liver % ID/g",4.95 %ID/g
same,tissue uptake at 2 h,"[5]; liver, read-out: liver % ID/g",3.16 %ID/g
same,tissue uptake at 4 h,"[5]; liver, read-out: liver % ID/g",1.52 %ID/g
same,tissue uptake at 6 h,"[5]; liver, read-out: liver % ID/g",0.74 %ID/g
same,tissue uptake at 24 h,"[5]; liver, read-out: liver % ID/g",0.19 %ID/g
same,tissue uptake at 8 h,"[5]; liver, read-out: liver % ID/g",0.63 %ID/g
same,tissue uptake at 12 h,"[5]; liver, read-out: liver % ID/g",0.2 %ID/g
same,tissue uptake at 1 h,"[5]; lungs, read-out: lungs % ID/g",5.35 %ID/g
same,tissue uptake at 2 h,"[5]; lungs, read-out: lungs % ID/g",5.56 %ID/g
same,tissue uptake at 4 h,"[5]; lungs, read-out: lungs % ID/g",2.63 %ID/g
same,tissue uptake at 6 h,"[5]; lungs, read-out: lungs % ID/g",0.93 %ID/g
same,tissue uptake at 8 h,"[5]; lungs, read-out: lungs % ID/g",0.43 %ID/g
same,tissue uptake at 12 h,"[5]; lungs, read-out: lungs % ID/g",0.04 %ID/g
same,tissue uptake at 24 h,"[5]; lungs, read-out: lungs % ID/g",0.02 %ID/g
same,tissue uptake at 1 h,[5]; [9],1.04 %ID/g
same,tissue uptake at 2 h,[5]; [9],6.86 %ID/g
same,tissue uptake at 4 h,[5]; [9],0.41 %ID/g
same,tissue uptake at 6 h,[5]; [9],0.12 %ID/g
same,tissue uptake at 24 h,[5]; [9],0.002 %ID/g
same,tissue uptake at 8 h,[5]; [9],0.07 %ID/g
same,tissue uptake at 12 h,[5]; [9],0.008 %ID/g
same,tissue uptake at 1 h,[5]; [10],2.86 %ID/g
same,tissue uptake at 2 h,[5]; [10],2.13 %ID/g
same,tissue uptake at 4 h,[5]; [10],0.83 %ID/g
same,tissue uptake at 6 h,[5]; [10],0.4 %ID/g
same,tissue uptake at 8 h,[5]; [10],0.14 %ID/g
same,tissue uptake at 12 h,[5]; [10],0.08 %ID/g
same,tissue uptake at 24 h,[5]; [10],0.01 %ID/g
same,tissue uptake at 1 h,[5]; [11],0.71 %ID/g
same,tissue uptake at 2 h,[5]; [11],0.85 %ID/g
same,tissue uptake at 4 h,[5]; [11],0.28 %ID/g
same,tissue uptake at 6 h,[5]; [11],0.61 %ID/g
same,tissue uptake at 24 h,[5]; [11],0.009 %ID/g
same,tissue uptake at 8 h,[5]; [11],0.13 %ID/g
same,tissue uptake at 12 h,[5]; [11],0.02 %ID/g
same,tissue uptake at 1 h,[5]; [12],2.54 %ID/g
same,tissue uptake at 2 h,[5]; [12],2.02 %ID/g
same,tissue uptake at 4 h,[5]; [12],0.62 %ID/g
same,tissue uptake at 6 h,[5]; [12],0.33 %ID/g
same,tissue uptake at 8 h,[5]; [12],0.14 %ID/g
same,tissue uptake at 12 h,[5]; [12],0.05 %ID/g
same,tissue uptake at 24 h,[5]; [12],0.09 %ID/g
same,tissue uptake at 1 h,[5]; [13],2.38 %ID/g
same,tissue uptake at 2 h,[5]; [13],3.03 %ID/g
same,tissue uptake at 4 h,[5]; [13],1.23 %ID/g
same,tissue uptake at 6 h,[5]; [13],2 ± 0.253 %ID/g
same,tissue uptake at 8 h,[5]; [13],0.58 %ID/g
same,tissue uptake at 12 h,[5]; [13],0.1 %ID/g
same,tissue uptake at 24 h,[5]; [13],0.02 %ID/g
same,tissue uptake at 1 h,[5]; [14],4.28 %ID/g
same,tissue uptake at 2 h,[5]; [14],4.14 %ID/g
same,tissue uptake at 4 h,[5]; [14],1.68 %ID/g
same,tissue uptake at 6 h,[5]; [14],2.74 %ID/g
same,tissue uptake at 8 h,[5]; [14],0.39 %ID/g
same,tissue uptake at 12 h,[5]; [14],0.04 %ID/g
same,tissue uptake at 24 h,[5]; [14],0.02 %ID/g
same,tissue uptake at 1 h,"[5]; tumor, read-out: tumor % ID/g",1.19 %ID/g
same,tissue uptake at 2 h,"[5]; tumor, read-out: tumor % ID/g",1.27 %ID/g
same,tissue uptake at 4 h,"[5]; tumor, read-out: tumor % ID/g",0.93 %ID/g
same,tissue uptake at 6 h,"[5]; tumor, read-out: tumor % ID/g",0.34 %ID/g
same,tissue uptake at 24 h,"[5]; tumor, read-out: tumor % ID/g",0.007 %ID/g
same,tissue uptake at 8 h,"[5]; tumor, read-out: tumor % ID/g",0.12 %ID/g
same,tissue uptake at 12 h,"[5]; tumor, read-out: tumor % ID/g",0.02 %ID/g
same,tumoral definition,[6],very good tumoral definition
